Reference: PubChem BioAssay AID1963428 (Molecular Pharmacology Branch, DTP, NCI, 2024)

Test system: 171881-019-R-J1-PDC complex spheroid growth, % test/control
Assay: Anticancer human tumor 171881-019-R-J1-PDC patient-derived invasive breast carcinoma cell line growth inhibition [Asc]
Details: for IC50: curve of first compound; for viability, T/C: stronger effect = lower value
Outline: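 Tumor cells were grown as complex spheroids with human endothelial cells (HUVEC) and human mesenchymal stem cells as stroma. Agents were tested alone and in combination, in half-log steps down from the clinical Cmax, or from 10 microM where Cmax was unknown.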

[1] = second compound 0.03 µM, first compound 0.0316 µM
[2] = second compound 0.03 µM, first compound 0.1 µM
[3] = second compound 0.03 µM, first compound 0.316 µM
[4] = second compound 0.03 µM, first compound 1 µM
[5] = second compound 0.0949 µM, first compound 0.0316 µM
[6] = second compound 0.0949 µM, first compound 0.1 µM
[7] = second compound 0.0949 µM, first compound 0.316 µM
[8] = second compound 0.0949 µM, first compound 1 µM
[9] = second compound 0.3 µM, first compound 0.0316 µM
[10] = second compound 0.3 µM, first compound 0.1 µM
[11] = second compound 0.3 µM, first compound 0.316 µM
[12] = second compound 0.3 µM, first compound 1 µM
[13] = second compound 0.949 µM, first compound 0.0316 µM
[14] = second compound 0.949 µM, first compound 0.1 µM
[15] = second compound 0.949 µM, first compound 0.316 µM
[16] = second compound 0.949 µM, first compound 1 µM
[17] = second compound 3 µM, first compound 0.0316 µM
[18] = second compound 3 µM, first compound 0.1 µM
[19] = second compound 3 µM, first compound 0.316 µM
[20] = second compound 3 µM, first compound 1 µM
[21] = second compound 0.1 µM, first compound 0.0316 µM
[22] = second compound 0.1 µM, first compound 0.1 µM
[23] = second compound 0.1 µM, first compound 0.316 µM
[24] = second compound 0.1 µM, first compound 1 µM
[25] = second compound 0.316 µM, first compound 0.0316 µM
[26] = second compound 0.316 µM, first compound 0.1 µM
[27] = second compound 0.316 µM, first compound 0.316 µM
[28] = second compound 0.316 µM, first compound 1 µM
[29] = second compound 1 µM, first compound 0.0316 µM
[30] = second compound 1 µM, first compound 0.1 µM
[31] = second compound 1 µM, first compound 0.316 µM
[32] = second compound 1 µM, first compound 1 µM
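Throughout, for viability, T/C: spheroids exposed to compounds for 7 days.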

Compound: CNC(C)C(=O)NC1CN(S(=O)(=O)c2cccc(S(=O)(=O)N3CCC4CCC(C(=O)NC(c5ccccc5)c5ccccc5)N4C(=O)C(NC(=O)C(C)NC)C3)c2)CCC2CCC(C(=O)NC(c3ccccc3)c3ccccc3)N2C1=O (stereo not given) + CCN1C(C(=O)NC23CCC(C(=O)O)(CC2)CC3)C(c2cccc(Cl)c2F)C2(C(=O)Nc3cc(Cl)ccc32)C12CCCCC2
- IC50 (second compound 0.03 µM): > 1000 nM
- IC50 (second compound 0.0949 µM): > 1000 nM
- IC50 (second compound 0.3 µM): > 1000 nM
- IC50 (second compound 0.949 µM): > 1000 nM
- IC50 (second compound 3 µM): > 1000 nM
- viability, T/C (second compound 0.03 µM, first compound 0.00316 µM): 91.6%
- viability, T/C (second compound 0.03 µM, first compound 0.01 µM): 103%
- viability, T/C [1]: 99.1%
- viability, T/C [2]: 93.3%
- viability, T/C [3]: 93.7%
- viability, T/C [4]: 93%
- viability, T/C (second compound 0.0949 µM, first compound 0.00316 µM): 118%
- viability, T/C (second compound 0.0949 µM, first compound 0.01 µM): 96.8%
- viability, T/C [5]: 94.5%
- viability, T/C [6]: 91.7%
- viability, T/C [7]: 109%
- viability, T/C [8]: 90.2%
- viability, T/C (second compound 0.3 µM, first compound 0.00316 µM): 113%
- viability, T/C (second compound 0.3 µM, first compound 0.01 µM): 103%
- viability, T/C [9]: 103%
- viability, T/C [10]: 109%
- viability, T/C [11]: 93.5%
- viability, T/C [12]: 100%
- viability, T/C (second compound 0.949 µM, first compound 0.00316 µM): 109%
- viability, T/C (second compound 0.949 µM, first compound 0.01 µM): 107%
- viability, T/C [13]: 113%
- viability, T/C [14]: 88.5%
- viability, T/C [15]: 109%
- viability, T/C [16]: 102%
- viability, T/C (second compound 3 µM, first compound 0.00316 µM): 102%
- viability, T/C (second compound 3 µM, first compound 0.01 µM): 115%
- viability, T/C [17]: 106%
- viability, T/C [18]: 90.3%
- viability, T/C [19]: 100%
- viability, T/C [20]: 96%

Compound: O=C(c1cc(Cc2n[nH]c(=O)c3ccccc23)ccc1F)N1CCN(C(=O)C2CC2)CC1 + Cc1c(S(C)(=O)=O)c(-c2cc(F)cc(N3CCN(c4ccc(NS(=O)(=O)c5ccc(NC(CCN6CCC(C(=O)OCCCP(=O)(O)O)CC6)CSc6ccccc6)c(S(=O)(=O)C(F)(F)F)c5)cc4)CC3)c2)c(-c2ccc(Cl)cc2)n1C(C)C
- IC50 (second compound 0.1 µM): > 10000 nM
- IC50 (second compound 0.316 µM): > 10000 nM
- IC50 (second compound 1 µM): > 10000 nM
- IC50 (second compound 3.16 µM): > 10000 nM
- IC50 (second compound 10 µM): > 10000 nM
- viability, T/C [21]: 106%
- viability, T/C [22]: 102%
- viability, T/C [23]: 103%
- viability, T/C [24]: 124%
- viability, T/C (second compound 0.1 µM, first compound 3.16 µM): 102%
- viability, T/C (second compound 0.1 µM, first compound 10 µM): 111%
- viability, T/C [25]: 136%
- viability, T/C [26]: 125%
- viability, T/C [27]: 134%
- viability, T/C [28]: 125%
- viability, T/C (second compound 0.316 µM, first compound 3.16 µM): 127%
- viability, T/C (second compound 0.316 µM, first compound 10 µM): 134%
- viability, T/C [29]: 132%
- viability, T/C [30]: 136%
- viability, T/C [31]: 143%
- viability, T/C [32]: 168%
- viability, T/C (second compound 1 µM, first compound 3.16 µM): 169%
- viability, T/C (second compound 1 µM, first compound 10 µM): 180%
- viability, T/C (second compound 3.16 µM, first compound 0.0316 µM): 158%
- viability, T/C (second compound 3.16 µM, first compound 0.1 µM): 200%
- viability, T/C (second compound 3.16 µM, first compound 0.316 µM): 193%
- viability, T/C (second compound 3.16 µM, first compound 1 µM): 164%
- viability, T/C (second compound 3.16 µM, first compound 3.16 µM): 197%
- viability, T/C (second compound 3.16 µM, first compound 10 µM): 184%
- viability, T/C (second compound 10 µM, first compound 0.0316 µM): 212%
- viability, T/C (second compound 10 µM, first compound 0.1 µM): 208%
- viability, T/C (second compound 10 µM, first compound 0.316 µM): 228%
- viability, T/C (second compound 10 µM, first compound 1 µM): 227%
- viability, T/C (second compound 10 µM, first compound 3.16 µM): 209%
- viability, T/C (second compound 10 µM, first compound 10 µM): 175%

Compound: C=CC(=O)N1CCN(c2nc(=O)n(-c3c(C)ccnc3C(C)C)c3nc(-c4c(O)cccc4F)c(F)cc23)C(C)C1 (stereo not given) + CCN1C(C(=O)NC23CCC(C(=O)O)(CC2)CC3)C(c2cccc(Cl)c2F)C2(C(=O)Nc3cc(Cl)ccc32)C12CCCCC2
- IC50 (second compound 0.03 µM): > 10000 nM
- IC50 (second compound 0.0949 µM): > 10000 nM
- IC50 (second compound 0.3 µM): > 10000 nM
- IC50 (second compound 0.949 µM): > 10000 nM
- IC50 (second compound 3 µM): > 10000 nM
- viability, T/C [1]: 103%
- viability, T/C [2]: 102%
- viability, T/C [3]: 100%
- viability, T/C [4]: 96.8%
- viability, T/C (second compound 0.03 µM, first compound 3.16 µM): 102%
- viability, T/C (second compound 0.03 µM, first compound 10 µM): 103%
- viability, T/C [5]: 93.5%
- viability, T/C [6]: 91.7%
- viability, T/C [7]: 107%
- viability, T/C [8]: 112%
- viability, T/C (second compound 0.0949 µM, first compound 3.16 µM): 94.4%
- viability, T/C (second compound 0.0949 µM, first compound 10 µM): 109%
- viability, T/C [9]: 116%
- viability, T/C [10]: 105%
- viability, T/C [11]: 105%
- viability, T/C [12]: 109%
- viability, T/C (second compound 0.3 µM, first compound 3.16 µM): 107%
- viability, T/C (second compound 0.3 µM, first compound 10 µM): 90.7%
- viability, T/C [13]: 96.5%
- viability, T/C [14]: 104%
- viability, T/C [15]: 116%
- viability, T/C [16]: 106%
- viability, T/C (second compound 0.949 µM, first compound 3.16 µM): 106%
- viability, T/C (second compound 0.949 µM, first compound 10 µM): 116%
- viability, T/C [17]: 94.2%
- viability, T/C [18]: 112%
- viability, T/C [19]: 103%
- viability, T/C [20]: 97%
- viability, T/C (second compound 3 µM, first compound 3.16 µM): 99.8%
- viability, T/C (second compound 3 µM, first compound 10 µM): 107%

Compound: O=C(c1ccc(F)c(F)c1Nc1ccc(I)cc1F)N1CC(O)([C@@H]2CCCCN2)C1 + CNC(C)C(=O)NC1CN(S(=O)(=O)c2cccc(S(=O)(=O)N3CCC4CCC(C(=O)NC(c5ccccc5)c5ccccc5)N4C(=O)C(NC(=O)C(C)NC)C3)c2)CCC2CCC(C(=O)NC(c3ccccc3)c3ccccc3)N2C1=O
- IC50 (second compound 0.01 µM): > 1000 nM
- IC50 (second compound 0.0316 µM): 747 nM
- IC50 (second compound 0.1 µM): 635 nM
- IC50 (second compound 0.316 µM): 519 nM
- IC50 (second compound 1 µM): 408 nM
- viability, T/C (second compound 0.01 µM, first compound 0.00316 µM): 98.1%
- viability, T/C (second compound 0.01 µM, first compound 0.01 µM): 103%
- viability, T/C (second compound 0.01 µM, first compound 0.0316 µM): 125%
- viability, T/C (second compound 0.01 µM, first compound 0.1 µM): 202%
- viability, T/C (second compound 0.01 µM, first compound 0.316 µM): 96.9%
- viability, T/C (second compound 0.01 µM, first compound 1 µM): 44.9%
- viability, T/C (second compound 0.0316 µM, first compound 0.00316 µM): 93.8%
- viability, T/C (second compound 0.0316 µM, first compound 0.01 µM): 98.2%
- viability, T/C (second compound 0.0316 µM, first compound 0.0316 µM): 133%
- viability, T/C (second compound 0.0316 µM, first compound 0.1 µM): 203%
- viability, T/C (second compound 0.0316 µM, first compound 0.316 µM): 86.4%
- viability, T/C (second compound 0.0316 µM, first compound 1 µM): 37.6%
- viability, T/C (second compound 0.1 µM, first compound 0.00316 µM): 84.7%
- viability, T/C (second compound 0.1 µM, first compound 0.01 µM): 91.3%
- viability, T/C [21]: 148%
- viability, T/C [22]: 191%
- viability, T/C [23]: 80%
- viability, T/C [24]: 30.5%
- viability, T/C (second compound 0.316 µM, first compound 0.00316 µM): 115%
- viability, T/C (second compound 0.316 µM, first compound 0.01 µM): 111%
- viability, T/C [25]: 145%
- viability, T/C [26]: 179%
- viability, T/C [27]: 68.2%
- viability, T/C [28]: 25.7%
- viability, T/C (second compound 1 µM, first compound 0.00316 µM): 92.5%
- viability, T/C (second compound 1 µM, first compound 0.01 µM): 110%
- viability, T/C [29]: 121%
- viability, T/C [30]: 158%
- viability, T/C [31]: 58.1%
- viability, T/C [32]: 21.4%
